Results as given in US12091405B2, “Substituted pyrazole compounds as indoleamine 2,3-dioxygenase inhibitors” (Merck Sharp & Dohme LLC, priority 2018, dated 2024).

Molecular target: IDO1 (Homo sapiens, UniProt P14902)
Assay: IDO1 Cellular Assay in HeLa Cells Stimulated with IFNγ
Type: cell-based
Settings: IFNγ 100 ng/mL, 300 uM L-tryptophan, about 48 hours, fluorescence readout, read-out: IDO1 HELA Cell Assay, IC50

Sequence of IDO1 (P14902 whole entry): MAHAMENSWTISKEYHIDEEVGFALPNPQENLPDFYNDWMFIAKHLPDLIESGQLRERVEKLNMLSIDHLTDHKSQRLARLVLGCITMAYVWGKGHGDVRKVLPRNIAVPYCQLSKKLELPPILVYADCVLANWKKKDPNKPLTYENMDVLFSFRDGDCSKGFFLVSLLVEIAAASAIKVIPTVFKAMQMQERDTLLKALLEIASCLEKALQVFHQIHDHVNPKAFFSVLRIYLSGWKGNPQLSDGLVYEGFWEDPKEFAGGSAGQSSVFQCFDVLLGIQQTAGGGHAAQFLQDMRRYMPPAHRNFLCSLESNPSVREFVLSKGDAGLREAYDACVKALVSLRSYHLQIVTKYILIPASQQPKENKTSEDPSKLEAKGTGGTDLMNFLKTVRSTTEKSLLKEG

Row | IC50 [nM] | SMILES
1 | 27.7 | C[C@@H]1CN(C(=O)c2nn(CC(=O)N3CCC(c4ccc(F)c(Cl)c4)CC3)c3c2CCC3)C[C@H](C)O1 [Example 100, 1-[4-(3-chloro-4-fluorophenyl)piperidin-1-yl]-2-{3-[(2R,6S)-2,6-dimethylmorpholine-4-carbonyl]-5,6-dihydrocyclopenta[c]pyrazol-1(4H)-yl}ethan-1-one]
2 | 27.9 | C[C@@H]1CN(C(=O)c2nn(CC(=O)N3CCC(c4cc(F)c(Cl)c(F)c4)CC3)c3c2CCC3)C[C@H](C)O1 [Example 101, 1-[4-(4-chloro-3,5-difluorophenyl)piperidin-1-yl]-2-{3-[(2R,6S)-2,6-dimethylmorpholine-4-carbonyl]-5,6-dihydrocyclopenta[c]pyrazol-1(4H)-yl}ethan-1-one]
3 | 28.9 | COc1c(C)cc(C2CCN(C(=O)Cn3nc(C(=O)N4C[C@@H](C)O[C@@H](C)C4)c4c3CCC4)CC2)cc1C [Example 102, 2-{3-[(2R,6S)-2,6-dimethylmorpholine-4-carbonyl]-5,6-dihydrocyclopenta[c]pyrazol-1(4H)-yl}-1-[4-(4-methoxy-3,5-dimethylphenyl)piperidin-1-yl]ethan-1-one]
4 | 29.6 | C[C@@H]1CN(C(=O)c2nn(CC(=O)N3CCC(c4cccc(C5CC5)c4)CC3)c3c2CCC3)C[C@H](C)O1 [Example 103, 1-[4-(3-cyclopropylphenyl)piperidin-1-yl]-2-{3-[(2R,6S)-2,6-dimethylmorpholine-4-carbonyl]-5,6-dihydrocyclopenta[c]pyrazol-1(4H)-yl}ethan-1-one]
5 | 29.8 | C[C@@H]1CN(C(=O)c2nn(CC(=O)N3CCC(c4cccc(C(F)(F)F)c4F)CC3)c3c2CCC3)C[C@H](C)O1 [Example 104, 2-{3-[(2R,6S)-2,6-dimethylmorpholine-4-carbonyl]-5,6-dihydrocyclopenta[c]pyrazol-1(4H)-yl}-1-{4-[2-fluoro-3-(trifluoromethyl)phenyl]piperidin-1-yl}ethan-1-one]
6 | 30.3 | Cc1ccc(C2CCN(C(=O)Cn3nc(C(=O)N4C[C@@H](C)O[C@@H](C)C4)c4c3CCC4)CC2)c(C)c1 [Example 105, 2-{3-[(2R,6S)-2,6-dimethylmorpholine-4-carbonyl]-5,6-dihydrocyclopenta[c]pyrazol-1(4H)-yl}-1-[4-(2,4-dimethylphenyl)piperidin-1-yl]ethan-1-one]
7 | 30.3 | Cc1cc(Cl)ccc1C1CCN(C(=O)Cn2nc(C(=O)N3C[C@@H](C)O[C@@H](C)C3)c3c2CCC3)CC1 [Example 106, 1-[4-(4-chloro-2-methylphenyl)piperidin-1-yl]-2-{3-[(2R,6S)-2,6-dimethylmorpholine-4-carbonyl]-5,6-dihydrocyclopenta[c]pyrazol-1(4H)-yl}ethan-1-one]
8 | 31.5 | C[C@@H]1CN(C(=O)c2nn(CC(=O)N3CCC(c4cccc(Cl)c4)CC3)c3c2CCC3)C[C@H](C)O1 [Example 107, 1-[4-(3-chlorophenyl)piperidin-1-yl]-2-{3-[(2R,6S)-2,6-dimethylmorpholine-4-carbonyl]-5,6-dihydrocyclopenta[c]pyrazol-1(4H)-yl}ethan-1-one]
9 | 37.9 | COc1cccc(C2CCN(C(=O)Cn3nc(C(=O)N4C[C@@H](C)O[C@@H](C)C4)c4c3CCC4)CC2)c1 [Example 108, 2-{3-[(2R,6S)-2,6-dimethylmorpholine-4-carbonyl]-5,6-dihydrocyclopenta[c]pyrazol-1(4H)-yl}-1-[4-(3-methoxyphenyl)piperidin-1-yl]ethan-1-one]
10 | 38.2 | CCc1ccccc1C1CCN(C(=O)Cn2nc(C(=O)N3C[C@@H](C)O[C@@H](C)C3)c3c2CCC3)CC1 [Example 109, 2-{3-[(2R,6S)-2,6-dimethylmorpholine-4-carbonyl]-5,6-dihydrocyclopenta[c]pyrazol-1(4H)-yl}-1-[4-(2-ethylphenyl)piperidin-1-yl]ethan-1-one]

The next lines start with the compound.

Row | SMILES | IC50 [nM]
11 | Cc1ccnc(C2CCN(C(=O)Cn3nc(C(=O)N4C[C@@H](C)O[C@@H](C)C4)c4c3CCC4)CC2)c1C [Example 80, 2-(3-(cis-2,6-dimethylmorpholine-4-carbonyl)-5,6-dihydrocyclopenta[c]pyrazol-1(4H)-yl)-1-(4-(3,4-dimethylpyridin-2-yl)piperidin-1-yl)ethan-1-one] | 74.2
12 | C[C@@H]1CN(C(=O)c2nn(CC(=O)N3CCC(c4cccc5ccsc45)CC3)c3c2CCC3)C[C@H](C)O1 [Example 84, 1-[4-(benzothiophen-7-yl)-1-piperidyl]-2-[3-[(2S,6R)-2,6-dimethylmorpholine-4-carbonyl]-5,6-dihydro-4H-cyclopenta[c]pyrazol-2-ium-1-yl]ethanone;2,2,2-trifluoroacetate] | 4.7
13 | C[C@@H]1CN(C(=O)c2nn(CC(=O)N3CCC(c4cccc5c(F)cccc45)CC3)c3c2CCC3)C[C@H](C)O1 [Example 85, 2-{3-[(2R,6S)-2,6-dimethylmorpholine-4-carbonyl]-5,6-dihydrocyclopenta[c]pyrazol-1(4H)-yl}-1-[4-(5-fluoronaphthalen-1-yl)piperidin-1-yl]ethan-1-one] | 5.3
14 | C[C@@H]1CN(C(=O)c2nn(CC(=O)N3CCC(c4cccc5c4CCC5)CC3)c3c2CCC3)C[C@H](C)O1 [Example 86, 1-[4-(2,3-dihydro-1H-inden-4-yl)piperidin-1-yl]-2-{3-[(2R,6S)-2,6-dimethylmorpholine-4-carbonyl]-5,6-dihydrocyclopenta[c]pyrazol-1(4H)-yl}ethan-1-one] | 7.3
15 | C[C@@H]1CN(C(=O)c2nn(CC(=O)N3CCC(c4cccc(Cl)c4Cl)CC3)c3c2CCC3)C[C@H](C)O1 [Example 87, 1-[4-(2,3-dichlorophenyl)piperidin-1-yl]-2-{3-[(2R,6S)-2,6-dimethylmorpholine-4-carbonyl]-5,6-dihydrocyclopenta[c]pyrazol-1(4H)-yl}ethan-1-one] | 7.8
16 | C[C@@H]1CN(C(=O)c2nn(CC(=O)N3CCC(c4cccc5sccc45)CC3)c3c2CCC3)C[C@H](C)O1 [Example 88, 1-[4-(1-benzothiophen-4-yl)piperidin-1-yl]-2-{3-[(2R,6S)-2,6-dimethylmorpholine-4-carbonyl]-5,6-dihydrocyclopenta[c]pyrazol-1(4H)-yl}ethan-1-one] | 8.3
17 | Cc1ccc(C2CCN(C(=O)Cn3nc(C(=O)N4C[C@@H](C)O[C@@H](C)C4)c4c3CCC4)CC2)cc1C [Example 89, 2-{3-[(2R,6S)-2,6-dimethylmorpholine-4-carbonyl]-5,6-dihydrocyclopenta[c]pyrazol-1(4H)-yl}-1-[4-(3,4-dimethylphenyl)piperidin-1-yl]ethan-1-one] | 8.8
18 | Cc1cc(F)cc(C2CCN(C(=O)Cn3nc(C(=O)N4C[C@@H](C)O[C@@H](C)C4)c4c3CCC4)CC2)c1 [Example 90, 2-{3-[(2R,6S)-2,6-dimethylmorpholine-4-carbonyl]-5,6-dihydrocyclopenta[c]pyrazol-1(4H)-yl}-1-[4-(3-fluoro-5-methylphenyl)piperidin-1-yl]ethan-1-one] | 9.9
19 | Cc1ccc(C2CCN(C(=O)Cn3nc(C(=O)N4C[C@@H](C)O[C@@H](C)C4)c4c3CCC4)CC2)cc1F [Example 91, 2-{3-[(2R,6S)-2,6-dimethylmorpholine-4-carbonyl]-5,6-dihydrocyclopenta[c]pyrazol-1(4H)-yl}-1-[4-(3-fluoro-4-methylphenyl)piperidin-1-yl]ethan-1-one] | 11.9
20 | Cc1cc(F)ccc1C1CCN(C(=O)Cn2nc(C(=O)N3C[C@@H](C)O[C@@H](C)C3)c3c2CCC3)CC1 [Example 92, 2-{3-[(2R,6S)-2,6-dimethylmorpholine-4-carbonyl]-5,6-dihydrocyclopenta[c]pyrazol-1(4H)-yl}-1-[4-(4-fluoro-2-methylphenyl)piperidin-1-yl]ethan-1-one] | 14.4
21 | C[C@@H]1CN(C(=O)c2nn(CC(=O)N3CCC(c4ccc5c(c4)CCO5)CC3)c3c2CCC3)C[C@H](C)O1 [Example 93, 1-[4-(2,3-dihydro-1-benzofuran-5-yl)piperidin-1-yl]-2-{3-[(2R,6S)-2,6-dimethylmorpholine-4-carbonyl]-5,6-dihydrocyclopenta[c]pyrazol-1(4H)-yl}ethan-1-one] | 17.8
22 | Cc1cc(C2CCN(C(=O)Cn3nc(C(=O)N4C[C@@H](C)O[C@@H](C)C4)c4c3CCC4)CC2)ccc1F [Example 94, 2-{3-[(2R,6S)-2,6-dimethylmorpholine-4-carbonyl]-5,6-dihydrocyclopenta[c]pyrazol-1(4H)-yl}-1-[4-(4-fluoro-3-methylphenyl)piperidin-1-yl]ethan-1-one] | 18.9
23 | COc1c(F)cc(C2CCN(C(=O)Cn3nc(C(=O)N4C[C@@H](C)O[C@@H](C)C4)c4c3CCC4)CC2)cc1Cl [Example 95, 1-[4-(3-chloro-5-fluoro-4-methoxyphenyl)piperidin-1-yl]-2-{3-[(2R,6S)-2,6-dimethylmorpholine-4-carbonyl]-5,6-dihydrocyclopenta[c]pyrazol-1(4H)-yl}ethan-1-one] | 19.3
24 | CCc1cccc(C2CCN(C(=O)Cn3nc(C(=O)N4C[C@@H](C)O[C@@H](C)C4)c4c3CCC4)CC2)c1 [Example 96, 2-{3-[(2R,6S)-2,6-dimethylmorpholine-4-carbonyl]-5,6-dihydrocyclopenta[c]pyrazol-1(4H)-yl}-1-[4-(3-ethylphenyl)piperidin-1-yl]ethan-1-one] | 21.5
25 | C[C@@H]1CN(C(=O)c2nn(CC(=O)N3CCC(c4cccc(F)c4Cl)CC3)c3c2CCC3)C[C@H](C)O1 [Example 97, 1-[4-(2-chloro-3-fluorophenyl)piperidin-1-yl]-2-{3-[(2R,6S)-2,6-dimethylmorpholine-4-carbonyl]-5,6-dihydrocyclopenta[c]pyrazol-1(4H)-yl}ethan-1-one] | 24.1
26 | Cc1ccc(F)cc1C1CCN(C(=O)Cn2nc(C(=O)N3C[C@@H](C)O[C@@H](C)C3)c3c2CCC3)CC1 [Example 98, 2-{3-[(2R,6S)-2,6-dimethylmorpholine-4-carbonyl]-5,6-dihydrocyclopenta[c]pyrazol-1(4H)-yl}-1-[4-(5-fluoro-2-methylphenyl)piperidin-1-yl]ethan-1-one] | 27.1
27 | C[C@@H]1CN(C(=O)c2nn(CC(=O)N3CCC(c4cc(F)cc(Cl)c4)CC3)c3c2CCC3)C[C@H](C)O1 [Example 99, 1-[4-(3-chloro-5-fluorophenyl)piperidin-1-yl]-2-{3-[(2R,6S)-2,6-dimethylmorpholine-4-carbonyl]-5,6-dihydrocyclopenta[c]pyrazol-1(4H)-yl}ethan-1-one] | 27.4
